Like-named read-outs stand apart in the source and are kept apart here.
System: HCV Huh-luc/neo-ET replicon cells
Assay: Luciferase-Based HCV Replicon Assay (EC50 (1b))
Format: cell-based
Conditions: Hepatitis C virus
Description: Luciferase-Based HCV Replicon Assay Protocol (EC50 (1b))
The cell culture component of the assay is performed essentially as described by Bartenschlager et al., Hepatology 2002, 35, 694-703, wherein exponentially growing HCV Huh-luc/neo-ET replicon cells were seeded at 6×10^3 cells/well in 96 well assay plate. 24 hours later the cells were treated with various concentrations of compound or combination of compounds in triplicate using both fixed ratios and checkerboard matrices of test agents and cultured for 72 hours. The luciferase activity in the wells was determined using Bright-Glo reagent (Promega, Madison, Wis.) with a luminometer (Wallac 1420 Multilabel HTS Counter Victor 2). The background control was replicon cells treated with 100 nM BILN-2061, an inhibitor of the HCV protease. % Inhibition was determined for each compound concentration in relation to the negative (no compound) control to calculate the EC50(1b).

[1] = HCV Huh-luc/neo-ET replicon cells, 72 hours, luciferase activity, read-out: EC50 (1b)
[2] = HCV Huh-luc/neo-ET replicon cells, 72 hours, luciferase activity, read-out: EC50(1b) concentration
[3] = Huh-luc/neo-ET, 72 h, read-out: EC50 (1b)
[4] = Huh-luc/neo-ET, 72 h, read-out: EC50(1b) concentration

SMILES	EC50 [1]	EC50 [2]	EC50 [3]	EC50 [4]
CS(=O)(=O)Nc1ccc2c(c1)S(=O)(=O)NC(C1=C(O)C3C4CC(C5CC54)C3N(Cc3ccc(F)cc3)C1=O)=N2 (racemic) [Example 13, (rac-di-exo,di-exo)-N-{3-[3-(4-Fluoro-benzyl)-6-hydroxy-4-oxo-3-aza-tetracyclo[6.3.1.0^2,7.0^9,11]dodec-5-en-5-yl]-1,1-dioxo-1,2-dihydro-1λ^6-benzo[1,2,4]thiadiazin-7-yl}-methanesulfonamide]	< 0.005 µM	< 0.025 µM	–	–
CS(=O)(=O)Nc1ccc2c(c1)S(=O)(=O)N=C(C1=C(O)[C@@H]3[C@H]4CC[C@H](C4)[C@@H]3N(Cc3ccc(F)cc3Cl)C1=O)N2 [Example 1, (1R,2S,7R,8S)—N-{3-[3-(2-Chloro-4-fluoro-benzyl)-6-hydroxy-4-oxo-3-aza-tricyclo[6.2.1.0^2,7]undec-5-en-5-yl]-1,1-dioxo-1,4-dihydro-1λ^6-benzo[1,2,4]thiadiazin-7-yl}-methanesulfonamide]	< 0.005 µM	< 0.025 µM	–	–
CS(=O)(=O)Nc1ccc2c(c1)S(=O)(=O)N=C(C1=C(O)C3C4CCC(C4)C3N(Cc3ccc(F)c(Cl)c3)C1=O)N2 [Example 2, N-{3-[(1S,2S,7R,8R)-3-(Chloro-4-fluoro-benzyl)-6-hydroxy-4-oxo-3-aza-tricyclo[6.2.1.0^2,7]undec-5-en-5-yl]-1,1-dioxo-1,4-dihydro-1λ^6-benzo[1,2,4]thiadiazin-7-yl}-methanesulfonamide]	–	–	< 0.005 µM	< 0.025 µM
COc1cccc(CN2C(=O)C(C3=NS(=O)(=O)c4cc(NS(C)(=O)=O)ccc4N3)=C(O)[C@@H]3C4CCC(CC4)[C@@H]32)c1 [Example 3, N-{3-[(2S,7R)-6-Hydroxy-3-(3-methoxy-benzyl)-4-oxo-3-aza-tricyclo[6.2.2.0^2,7]dodec-5-en-5-yl]-1,1-dioxo-1,4-dihydro-1λ^6-benzo[1,2,4]thiadiazin-7-yl}-methanesulfonamide]	< 0.005 µM	< 0.025 µM	–	–
CS(=O)(=O)Nc1ccc2c(c1)S(=O)(=O)N=C(C1=C(O)[C@@H]3C4CCC(CC4)[C@@H]3N(Cc3ccc(F)cc3F)C1=O)N2 [Example 4, N-{3-[(2S,7R)-3-(2,4-Difluoro-benzyl)-6-hydroxy-4-oxo-3-aza-tricyclo[6.2.2.0^2,7]dodec-5-en-5-yl]-1,1-dioxo-1,4-dihydro-1λ^6-benzo[1,2,4]thiadiazin-7-yl}-methanesulfonamide]	< 0.005 µM	< 0.025 µM	–	–
CS(=O)(=O)Nc1ccc2c(c1)S(=O)(=O)N=C(C1=C(O)[C@@H]3C4CCC(CC4)[C@@H]3N(Cc3ccc(F)cc3Cl)C1=O)N2 [Example 5, N-{3-[(2S,7R)-3-(2-Chloro-4-fluoro-benzyl)-6-hydroxy-4-oxo-3-aza-tricyclo[6.2.2.0^2,7]dodec-5-en-5-yl]-1,1-dioxo-1,4-dihydro-1λ^6-benzo[1,2,4]thiadiazin-7-yl}-methanesulfonamide]	0.005 to 0.025 µM	< 0.025 µM	–	–
CS(=O)(=O)Nc1ccc2c(c1)S(=O)(=O)N=C(C1=C(O)[C@@H]3C4CCC(CC4)[C@@H]3N(Cc3ccccc3Br)C1=O)N2 [Example 6, N-{3-[(2S,7R)-3-(2-Bromo-benzyl)-6-hydroxy-4-oxo-3-aza-tricyclo[6.2.2.0^2,7]dodec-5-en-5-yl]-1,1-dioxo-1,4-dihydro-1λ^6-benzo[1,2,4]thiadiazin-7-yl}-methanesulfonamide]	< 0.005 µM	< 0.025 µM	–	–
COc1cc(CN2C(=O)C(C3=NS(=O)(=O)c4cc(NS(C)(=O)=O)ccc4N3)=C(O)[C@@H]3C4CCC(CC4)[C@@H]32)ccc1F [Example 7, N-{3-[(2S,7R)-3-(4-Fluoro-3-methoxy-benzyl)-6-hydroxy-4-oxo-3-aza-tricyclo[6.2.2.0^2,7]dodec-5-en-5-yl]-1,1-dioxo-1,4-dihydro-1λ^6-benzo[1,2,4]thiadiazin-7-yl}-methanesulfonamide]	< 0.005 µM	< 0.025 µM	–	–
CS(=O)(=O)Nc1ccc2c(c1)S(=O)(=O)N=C(C1=C(O)[C@@H]3C4CCC(CC4)[C@@H]3N(Cc3ccc(F)c(Cl)c3)C1=O)N2 [Example 8, N-{3-[(2S,7R)-3-(3-Chloro-4-fluoro-benzyl)-6-hydroxy-4-oxo-3-aza-tricyclo[6.2.2.0^2,7]dodec-5-en-5-yl]-1,1-dioxo-1,4-dihydro-1λ^6-benzo[1,2,4]thiadiazin-7-yl}-methanesulfonamide]	< 0.005 µM	< 0.025 µM	–	–
CC(C)(C)CCN1C(=O)C(C2=NS(=O)(=O)c3cc(NS(C)(=O)=O)ccc3N2)=C(O)[C@@H]2C3CCC(CC3)[C@@H]21 [Example 9, N-{3-[(2S,7R)-3-(3,3-Dimethyl-butyl)-6-hydroxy-4-oxo-3-aza-tricyclo[6.2.2.0^2,7]dodec-5-en-5-yl]-1,1-dioxo-1,4-dihydro-1λ^6-benzo[1,2,4]thiadiazin-7-yl}-methanesulfonamide]	< 0.005 µM	< 0.025 µM	–	–
CS(=O)(=O)Nc1ccc2c(c1)S(=O)(=O)N=C(C1=C(O)[C@@H]3C4CCC(CC4)[C@@H]3N(Cc3ccc(F)c(F)c3)C1=O)N2 [Example 10, N-{3-[(2S,7R)-3-(3,4-Difluoro-benzyl)-6-hydroxy-4-oxo-3-aza-tricyclo[6.2.2.0^2,7]dodec-5-en-5-yl]-1,1-dioxo-1,4-dihydro-1λ^6-benzo[1,2,4]thiadiazin-7-yl}-methanesulfonamide]	< 0.005 µM	< 0.025 µM	–	–
Cc1cc(CN2C(=O)C(C3=NS(=O)(=O)c4cc(NS(C)(=O)=O)ccc4N3)=C(O)[C@@H]3C4CCC(CC4)[C@@H]32)ccc1F [Example 11, N-{3-[(2S,7R)-3-(4-Fluoro-3-methyl-benzyl)-6-hydroxy-4-oxo-3-aza-tricyclo[6.2.2.0^2,7]dodec-5-en-5-yl]-1,1-dioxo-1,4-dihydro-1λ^6-benzo[1,2,4]thiadiazin-7-yl}-methanesulfonamide]	< 0.005 µM	< 0.025 µM	–	–
CS(=O)(=O)Nc1ccc2c(c1)S(=O)(=O)NC(C1=C(O)[C@@H]3C4CCC(CC4)[C@@H]3N(Cc3ccccc3)C1=O)=N2 [Example 12, N-{3-[(2S,7R)-3-Benzyl-6-hydroxy-4-oxo-3-aza-tricyclo[6.2.2.0^2,7]dodec-5-en-5-yl]-1,1-dioxo-1,2-dihydro-1λ^6-benzo[1,2,4]thiadiazin-7-yl}-methanesulfonamide]	< 0.005 µM	< 0.025 µM	–	–
CS(=O)(=O)Nc1ccc2c(c1)S(=O)(=O)NC(C1=C(O)[C@@H]3C4CCC(CC4)[C@@H]3N(Cc3cccc(F)c3)C1=O)=N2 [Example 14, N-{3-[(2S,7R)-3-(3-Fluoro-benzyl)-6-hydroxy-4-oxo-3-aza-tricyclo[6.2.2.0^2,7]dodec-5-en-5-yl]-1,1-dioxo-1,2-dihydro-1λ^6-benzo[1,2,4]thiadiazin-7-yl}-methanesulfonamide]	< 0.005 µM	< 0.025 µM	–	–
CS(=O)(=O)Nc1ccc2c(c1)S(=O)(=O)NC(C1=C(O)[C@@H]3C4CCC(CC4)[C@@H]3N(CC3CCCCC3)C1=O)=N2 [Example 15, N-{3-[(2S,7R)-3-Cyclohexylmethyl-6-hydroxy-4-oxo-3-aza-tricyclo[6.2.2.0^2,7]dodec-5-en-5-yl]-1,1-dioxo-1,2-dihydro-1λ^6-benzo[1,2,4]thiadiazin-7-yl}-methanesulfonamide]	0.005 to 0.025 µM	< 0.025 µM	–	–
CS(=O)(=O)Nc1ccc2c(c1)S(=O)(=O)NC(C1=C(O)[C@@H]3C4CCC(CC4)[C@@H]3N(Cc3cccs3)C1=O)=N2 [Example 16, N-{3-[(2S,7R)-6-Hydroxy-4-oxo-3-thiophen-2-ylmethyl-3-aza-tricyclo[6.2.2.0^2,7]dodec-5-en-5-yl]-1,1-dioxo-1,2-dihydro-1λ^6-benzo[1,2,4]thiadiazin-7-yl}-methanesulfonamide]	0.005 to 0.025 µM	< 0.025 µM	–	–
Cc1ccccc1CN1C(=O)C(C2=Nc3ccc(NS(C)(=O)=O)cc3S(=O)(=O)N2)=C(O)[C@@H]2C3CCC(CC3)[C@@H]21 [Example 17, N-{3-[(2S,7R)-6-Hydroxy-3-(2-methyl-benzyl)-4-oxo-3-aza-tricyclo[6.2.2.0^2,7]dodec-5-en-5-yl]-1,1-dioxo-1,2-dihydro-1λ^6-benzo[1,2,4]thiadiazin-7-yl}-methanesulfonamide]	0.005 to 0.025 µM	< 0.025 µM	–	–
CS(=O)(=O)Nc1ccc2c(c1)S(=O)(=O)NC(C1=C(O)[C@@H]3C4CCC(CC4)[C@@H]3N(Cc3ccc(F)c(F)c3F)C1=O)=N2 [Example 18, N-{3-[(2S,7R)-6-Hydroxy-4-oxo-3-(2,3,4-trifluoro-benzyl)-3-aza-tricyclo[6.2.2.0^2,7]dodec-5-en-5-yl]-1,1-dioxo-1,2-dihydro-1λ^6-benzo[1,2,4]thiadiazin-7-yl}-methanesulfonamide]	0.005 to 0.025 µM	< 0.025 µM	–	–
CS(=O)(=O)Nc1ccc2c(c1)S(=O)(=O)NC(C1=C(O)[C@@H]3[C@@H]4CC[C@@H](C4)[C@@H]3N(Cc3ccccc3)C1=O)=N2 [Example 20]	–	–	0.005 to 0.025 µM	< 0.025 µM
CS(=O)(=O)Nc1ccc2c(c1)S(=O)(=O)NC(C1=C(O)[C@@H]3[C@H]4CC[C@H](C4)[C@@H]3N(Cc3cccc(F)c3)C1=O)=N2 [Example 21, N-{3-[(1R,2S,7R,8S)-3-(3-Fluoro-benzyl)-6-hydroxy-4-oxo-3-aza-tricyclo[6.2.1.0^2,7]undec-5-en-5-yl]-1,1-dioxo-1,2-dihydro-1λ^6-benzo[1,2,4]thiadiazin-7-yl}-methanesulfonamide]	0.005 to 0.025 µM	< 0.025 µM	–	–
